Values after ≈ are worked out from the molar mass of the structure shown.
How the values were obtained:
Type in all cases: functional
[1] = system: Staphylococcus epidermidis; test: In vitro inhibitory concentration required against Staphylococcus epidermidis (Staphylococcus epidermidis)
Staphylococcus aureus = test: In vitro inhibitory concentration required against Staphylococcus aureus (Staphylococcus aureus)
Micrococcus luteus = test: In vitro inhibitory concentration required against Micrococcus luteus (Micrococcus luteus)

In the case of CC[C@H](C)[C@@H](N)C1=N[C@@H](C(=O)N[C@H](CC(C)C)C(=O)N[C@@H](CCC(=O)O)C(=O)N[C@@H](C(=O)N[C@@H]2CCCCNC(=O)[C@@H](CC(N)=O)NC(=O)[C@H](CC(=O)O)NC(=O)[C@@H](Cc3c[nH]cn3)NC(=O)[C@H](Cc3ccccc3)NC(=O)[C@@H]([C@@H](C)CC)NC(=O)[C@H](CCCN)NC2=O)[C@@H](C)CC)CS1 (stereo in doubt; form 2) [BACITRACIN A], the MIC [1] is reported as 32 µg/mL (≈ 22.5 µM) and the MIC (Staphylococcus aureus) is reported as 4 µg/mL (≈ 2.81 µM).
CC[C@H](C)[C@@H](N)C1=N[C@@H](C(=O)N[C@H](CC(C)C)C(=O)N[C@@H](CCC(=O)O)C(=O)N[C@@H](C(=O)N[C@@H]2CCCCNC(=O)[C@@H](CC(N)=O)NC(=O)[C@H](CC(=O)O)NC(=O)[C@@H](Cc3c[nH]cn3)NC(=O)[C@H](Cc3ccccc3)NC(=O)[C@@H]([C@@H](C)CC)NC(=O)[C@H](CCCN)NC2=O)[C@@H](C)CC)CS1 (stereo in doubt; form 1) [BACITRACIN A] gave an MIC (Micrococcus luteus) of under 0.013 µg/mL, an MIC ([1]; Staphylococcus epidermidis, read-out: MIC) of 32 µg/mL (≈ 22.5 µM) and an MIC (Staphylococcus aureus; Staphylococcus aureus, read-out: MIC) of 4 µg/mL (≈ 2.81 µM).

Source: ChEMBL document CHEMBL1136092, “Enantiotracin” (2003)
